Experimental data published in US20190100549A1, “FLAVONOIDE-TYPE COMPOUNDS BEARING AN O-RHAMNOSYL RESIDUE” (Universitaet Hamburg, priority 2016, published 2019).
Several values for one entry are separate records, joined by “and”; a condition that tells them apart may be missing. Equal entries are not always repeated.

Assays:
TNF-α = TNF-α release in stimulated NHEK (ELISA); assay type: cell-based, human; details: poly(I:C)
Protocol: (§1) NHEK were pre-incubated for 24 h with the test compounds. The medium was replaced with the NHEK culture medium containing the inflammatory inducers (PMA or Poly I:C) and incubated for another 24 hours. Positive and negative controls ran in parallel. At the endpoint the culture supernatants were quantified of secreted IL-8, PGE2 and TNF-α by means of ELISA.

[1] = test system: normal human epidermal keratinocytes (NHEK); assay: Cytotoxicity on NHEK monolayer cultures (MTT reduction assay and morphological observation); assay type: cell-based; details: for Viability (%): single values, listed as Hes-5-Rha
Protocol: To determine the cytotoxicity of flavonoid-5-O-α-L-rhamnosides tests were performed versus their aglycon derivatives in cell monolayer cultures. For this purpose concentrations ranging from 1 μM to 250 μM were chosen. The viability of normal human epidermal keratinocytes (NHEK) was twice evaluated by a MTT reduction assay and morphological observation with a microscope. NHEK were grown at 37° C. and 5% CO2 aeration in Keratinocyte-SFM medium supplemented with epidermal growth factor (EGF) at 0.25 ng/mL, pituitary extract (PE) at 25 μg/mL and gentamycin (25 μg/mL) for 24 h and were used at the 3rd passage. For cytotoxicity testing, pre-incubated NHEK were given fresh culture medium containing a specific concentration of test compound and incubated for 24 h. After a medium change at same test concentration cells were incubated a further 24 h until viability was determined. Test results are given in Table B2 and illustrated in FIG. 10.

[2] = test system: matrix metallopeptidase 1 (MMP-1); assay: MMP-1 release in UVA-irradiated NHDF (ELISA); assay type: cell-based, human; details: 100 μM, 15 J/cm^2 UVA
Protocol: (§2) Tests were performed with normal human dermal fibroblast cultures at the 8th passage. Cells were grown in DMEM supplemented with glutamine at 2 mM, penicillin at 50 U/mL and streptomycin (50 μg/mL) and 10% of fetal calf serum (FCS) at 37° C. in a 5% CO2 atmosphere.
Human fibroblasts were cultured for 24 hours before the cells were pre-incubated with the test or reference compounds (dexamethasone) for another 24 hours. The medium was replaced by the irradiation medium (EBSS, CaCl2 0.264 g/L, MgClSO4 0.2 g/L) containing the test compounds) and cells were irradiated with UVA (15 J/cm^2). The irradiation medium was replaced by culture medium including again the test compounds incubated for 48 hours. After incubation the quantity of matrix metallopeptidase 1 (MMP-1) in the culture supernatant was measured using an ELISA kit.

IL-8 = IL-8 release in stimulated NHEK (ELISA); assay type: cell-based, human; details: for inhibition at 100 µM: Homo sapiens, NHEK; for Cytokine [pg/mL] IL-8 Mean / IL-8 % stim. control / Cytokine [pg/mL] IL-8: 100 μM; for Cytokine [pg/mL] IL-8: single values
Protocol: as §1

HaCaT cells = assay: Glucose uptake (2-NBDG) in HaCaT keratinocytes; assay type: cell-based; parameters: key to Measure 1 / Measure 2 / Measure 3 / Mean: total green object integrated intensity, GCU×μm2×Well; details: +2NBDG 50 μM, 24 h; for Measure 1 / Measure 2 / Measure 3: HaCaT cells, fluorescence; for RFU specific: mean minus control; for Mean: mean of triplicate measurements; for % Glucose uptake: Rosiglitazone 80 μM = 100%
Protocol: HaCaT cells (5×10^4) were seeded in 96-well black plates and incubated for 24 h. Then, medium was removed and the cells cultivated in OptiMEM, labeled with 50 μM 2-NBDG (2-[N-(7-nitrobenz-2-oxa-1,3-diazol-4-yl) amino]-2-deoxy-D-glucose and treated with the test substances or the positive control, Rosiglitazone, for 24 h. Medium was removed and the wells were carefully washed with PBS and incubated in PBS (100l/well). Finally the fluorescence was measured using the Incucyte FLR software, the data were analyzed by the total green object integrated intensity (GCU×μm2×Well) of the imaging system IncuCyte HD (Essen BioScience). The fluorescence of Rosiglitazone is taken as 100% of glucose uptake, and the glucose uptake was calculated as (% Glucose uptake)=100(T−B)/(R−B), where T (treated) is the fluorescence of test substance-treated cells, B (Basal) is the fluorescence of 2-NBDG cells and […] is the fluorescence of cells treated with Rosiglitazone.

[3] = test system: lipid peroxides (C11-fluor) in NHEK cells; assay: Protection against UV-induced lipid peroxide in NHEK (C11-fluor probe, flow cytometry); assay type: cell-based, human; details: 100 μM, 240 mJ/cm^2 UVB (3538 mJ/cm^2 UVA)
Protocol: Pre-incubated NHEK were incubated with the test compound for 24 h. Then the specific fluorescence probe for the measurement of hydrogen peroxide (DHR) or lipid peroxides (C11-fluor) was added and incubated for 45 min. Irradiation occurred with in H2O2 determination UVB at 180 mJ/cm^2 (+UVA at 2839 mJ/cm^2) or UVB at 240 mJ/cm^2 (+UVA at 3538 mJ/cm^2) in lipid peroxide, respectively, using a SOL500 Sun Simulator lamp. After irradiation the cells were post-incubated for 30 min before flow-cytometry analysis.

PGE2 = PGE2 release in stimulated NHEK (ELISA); assay type: cell-based, human; details: PMA 1 μg/ml, 100 μM
Protocol: as §1

fibronectin = assay: Fibronectin synthesis in NHDF (ELISA); assay type: cell-based, human; details: 100 μM, 72 hours
Protocol: as §2
Fibroblasts were cultured for 24 hours before the cells were incubated with the test compounds for further 72 hours. After the incubation the culture supernatants were collected in order to measure the released quantities of procollagen I, VEGF, and fibronectin by means of ELISA. Reference test compounds were vitamin C (procollagen I), PMA (VEGF), and TGF-β (fibronectin).

COc1ccc(C2CC(=O)c3c(cc(O)cc3O[C@@H]3O[C@@H](C)[C@H](O)[C@@H](O)[C@H]3O)O2)cc1O (stereo partly drawn) [HESR1, Hesperetin-5-O-α-L-rhamnoside]
inhibition at 100 µM (TNF-α; Homo sapiens, NHEK, read-out: TNFα Inhibition %): 26% | Cytokine [pg/mL] TNFα Mean (TNF-α; 100 μM): 423 pg/mL | TNFα % stim. control (TNF-α; 100 μM): 75% | Cytokine [pg/mL] TNFα (TNF-α; 100 μM, single values): 416 pg/mL and 429 pg/mL | Viability (%) Mean ([1]; 1 μM): 97% | Viability (%) ([1]; 1 μM): 86% and 108% | Viability (%) Mean ([1]; 2.5 μM): 100% | Viability (%) ([1]; 2.5 μM): 87% and 113% | Viability (%) Mean ([1]; 5 μM): 88% | Viability (%) ([1]; 5 μM): 81% and 95% | Viability (%) Mean ([1]; 10 μM): 95% | Viability (%) ([1]; 10 μM): 86% and 103% | Viability (%) Mean ([1]; 25 μM): 101% | Viability (%) ([1]; 25 μM): 89% and 112% | Viability (%) Mean ([1]; 50 μM): 87% | Viability (%) ([1]; 50 μM): 81% and 93% | Viability (%) Mean ([1]; 100 μM): 97% | Viability (%) ([1]; 100 μM): 86% and 108% | Viability (%) Mean ([1]; 250 μM): 96% | Viability (%) ([1]; 250 μM): 91% and 102% | MMP-1 % Irradiated control [2]: 116% | MMP-1 % Protection [2]: −25% | Mean MMP-1 [2]: 82.2 ng/mL | MMP-1 ([2]; single values): 87.0 ng/mL and 77.4 ng/mL | inhibition at 100 µM (IL-8; PMA): 34% | inhibition at 100 µM (IL-8; poly(I:C)): 24% | Cytokine [pg/mL] IL-8 Mean (IL-8; PMA): 2843 pg/mL | IL-8 % stim. control (IL-8; PMA): 98% | Cytokine [pg/mL] IL-8 (IL-8; PMA): 3242 pg/mL and 2445 pg/mL | Cytokine [pg/mL] IL-8 Mean (IL-8; poly(I:C)): 2793 pg/mL | IL-8 % stim. control (IL-8; poly(I:C)): 76% | Cytokine [pg/mL] IL-8 (IL-8; poly(I:C)): 2617 pg/mL and 2970 pg/mL | Measure 1 (HaCaT cells; 25 μM test substance): 756943 | Measure 2 (HaCaT cells; 25 μM test substance): 549324 | Measure 3 (HaCaT cells; 25 μM test substance): 384251 | RFU specific (HaCaT cells; 25 μM test substance): 557192 RFU | Mean (HaCaT cells; 25 μM test substance): 563506 | % Glucose uptake (HaCaT cells; 25 μM test substance): 64.1% | Measure 1 (HaCaT cells; 50 μM test substance): 501977 | Measure 2 (HaCaT cells; 50 μM test substance): 642949 | Measure 3 (HaCaT cells; 50 μM test substance): 529620 | RFU specific (HaCaT cells; 50 μM test substance): 551868 RFU | Mean (HaCaT cells; 50 μM test substance): 558182 | % Glucose uptake (HaCaT cells; 50 μM test substance): 63.5% | C11-fluor(AU) Mean (1/GMFI) [3]: 6.4E−04 AU | lipid peroxide % Irradiated control [3]: 99% | lipid peroxide Protection % [3]: 1% | C11-fluor(AU) 1/GMFI ([3]; single values): 6.0E−04 AU and 6.9E−04 AU | C11-fluor(AU) GMFI ([3]; single values): 1671 AU and 1455 AU | inhibition at 100 µM (PGE2; Homo sapiens, NHEK): 74% | Cytokine [pg/mL] PGE2 Mean (PGE2): 507 pg/mL | PGE2 % stim. control (PGE2): 32% | Cytokine [pg/mL] PGE2 (PGE2; single values): 582 pg/mL and 431 pg/mL | Fibronectin % Control (fibronectin): 96% | Fibronectin % Stimulation (fibronectin): −4% | Fibronectin Mean (fibronectin): 5853 ng/mL | Fibronectin (fibronectin; single values): 5843 ng/mL and 5864 ng/mL
